Laboratory results published in patent US9549932B2, “2-(morpholin-4-yl)-1,7-naphthyridines” (BAYER PHARMA AKTIENGESELLSCHAFT, priority 2014, dated 2017).
Where a name gives a salt, the structure may show the parent alone. Read-outs that look alike come from different tables or passages of the source.

Biological target: full-length human ATR protein (Homo sapiens (Human), UniProt Q13535)
Assay: Binding assay ATR (TR-FRET tracer displacement)
Details: TR-FRET
From the text: To determine of binding activity of the test compounds, full-length human ATR protein was expressed and purified together with ATRIP as described above. Furthermore, a fluorescently labelled compound (either tracer A or B as described above) was used as a tracer molecule. Detection of the binding event of the tracer was achieved by time-resolved fluorescence energy transfer (TR-FRET). We used an anti-GST-Terbium antibody (CisBio) that binds to the GST-tag at the N-terminus of ATR-kinase. […] Displacement of the fluorescent tracer by a test compound leads to a reduction of the TR-FRET-signal.
For the assay 50 nl of a 100-fold concentrated solution of the test compound in DMSO was pipetted into a black low volume 384well microtiter plate (MTP, Greiner Bio-One, Frickenhausen, Germany). […] The ATR-working solution was incubated for 30 min at 22° C. prior to dispensing to pre-form the complex of antiGST-Tb+GST-ATR+ATRIP. Then, 3 μl of the ATR-working solution were added to the test compound and the mixture was incubated for 10 min at 22° C. to allow pre-binding of the test compounds to ATR/ATRIP. Then, 2 μl of a 100 nM solution of either tracer A or B in assay buffer were added to the ATR-working solution. The resulting mixture was incubated for 30 min at 22° C. […] The dilution series were prepared separately before the assay on the level of the 100 fold concentrated solutions in DMSO by serial 1:3.4 dilutions in duplicate values for each concentration. IC50 values were calculated by a 4 parameter fit using standard software (GraphPad prism or equivalent).

[1] = tracer A, read-out: ATR binding (tracer A) IC50
[2] = tracer B, read-out: ATR binding (tracer B) IC50

Sequence of full-length human ATR protein (Q13535 other isoform, or with tags, fused parts or gaps): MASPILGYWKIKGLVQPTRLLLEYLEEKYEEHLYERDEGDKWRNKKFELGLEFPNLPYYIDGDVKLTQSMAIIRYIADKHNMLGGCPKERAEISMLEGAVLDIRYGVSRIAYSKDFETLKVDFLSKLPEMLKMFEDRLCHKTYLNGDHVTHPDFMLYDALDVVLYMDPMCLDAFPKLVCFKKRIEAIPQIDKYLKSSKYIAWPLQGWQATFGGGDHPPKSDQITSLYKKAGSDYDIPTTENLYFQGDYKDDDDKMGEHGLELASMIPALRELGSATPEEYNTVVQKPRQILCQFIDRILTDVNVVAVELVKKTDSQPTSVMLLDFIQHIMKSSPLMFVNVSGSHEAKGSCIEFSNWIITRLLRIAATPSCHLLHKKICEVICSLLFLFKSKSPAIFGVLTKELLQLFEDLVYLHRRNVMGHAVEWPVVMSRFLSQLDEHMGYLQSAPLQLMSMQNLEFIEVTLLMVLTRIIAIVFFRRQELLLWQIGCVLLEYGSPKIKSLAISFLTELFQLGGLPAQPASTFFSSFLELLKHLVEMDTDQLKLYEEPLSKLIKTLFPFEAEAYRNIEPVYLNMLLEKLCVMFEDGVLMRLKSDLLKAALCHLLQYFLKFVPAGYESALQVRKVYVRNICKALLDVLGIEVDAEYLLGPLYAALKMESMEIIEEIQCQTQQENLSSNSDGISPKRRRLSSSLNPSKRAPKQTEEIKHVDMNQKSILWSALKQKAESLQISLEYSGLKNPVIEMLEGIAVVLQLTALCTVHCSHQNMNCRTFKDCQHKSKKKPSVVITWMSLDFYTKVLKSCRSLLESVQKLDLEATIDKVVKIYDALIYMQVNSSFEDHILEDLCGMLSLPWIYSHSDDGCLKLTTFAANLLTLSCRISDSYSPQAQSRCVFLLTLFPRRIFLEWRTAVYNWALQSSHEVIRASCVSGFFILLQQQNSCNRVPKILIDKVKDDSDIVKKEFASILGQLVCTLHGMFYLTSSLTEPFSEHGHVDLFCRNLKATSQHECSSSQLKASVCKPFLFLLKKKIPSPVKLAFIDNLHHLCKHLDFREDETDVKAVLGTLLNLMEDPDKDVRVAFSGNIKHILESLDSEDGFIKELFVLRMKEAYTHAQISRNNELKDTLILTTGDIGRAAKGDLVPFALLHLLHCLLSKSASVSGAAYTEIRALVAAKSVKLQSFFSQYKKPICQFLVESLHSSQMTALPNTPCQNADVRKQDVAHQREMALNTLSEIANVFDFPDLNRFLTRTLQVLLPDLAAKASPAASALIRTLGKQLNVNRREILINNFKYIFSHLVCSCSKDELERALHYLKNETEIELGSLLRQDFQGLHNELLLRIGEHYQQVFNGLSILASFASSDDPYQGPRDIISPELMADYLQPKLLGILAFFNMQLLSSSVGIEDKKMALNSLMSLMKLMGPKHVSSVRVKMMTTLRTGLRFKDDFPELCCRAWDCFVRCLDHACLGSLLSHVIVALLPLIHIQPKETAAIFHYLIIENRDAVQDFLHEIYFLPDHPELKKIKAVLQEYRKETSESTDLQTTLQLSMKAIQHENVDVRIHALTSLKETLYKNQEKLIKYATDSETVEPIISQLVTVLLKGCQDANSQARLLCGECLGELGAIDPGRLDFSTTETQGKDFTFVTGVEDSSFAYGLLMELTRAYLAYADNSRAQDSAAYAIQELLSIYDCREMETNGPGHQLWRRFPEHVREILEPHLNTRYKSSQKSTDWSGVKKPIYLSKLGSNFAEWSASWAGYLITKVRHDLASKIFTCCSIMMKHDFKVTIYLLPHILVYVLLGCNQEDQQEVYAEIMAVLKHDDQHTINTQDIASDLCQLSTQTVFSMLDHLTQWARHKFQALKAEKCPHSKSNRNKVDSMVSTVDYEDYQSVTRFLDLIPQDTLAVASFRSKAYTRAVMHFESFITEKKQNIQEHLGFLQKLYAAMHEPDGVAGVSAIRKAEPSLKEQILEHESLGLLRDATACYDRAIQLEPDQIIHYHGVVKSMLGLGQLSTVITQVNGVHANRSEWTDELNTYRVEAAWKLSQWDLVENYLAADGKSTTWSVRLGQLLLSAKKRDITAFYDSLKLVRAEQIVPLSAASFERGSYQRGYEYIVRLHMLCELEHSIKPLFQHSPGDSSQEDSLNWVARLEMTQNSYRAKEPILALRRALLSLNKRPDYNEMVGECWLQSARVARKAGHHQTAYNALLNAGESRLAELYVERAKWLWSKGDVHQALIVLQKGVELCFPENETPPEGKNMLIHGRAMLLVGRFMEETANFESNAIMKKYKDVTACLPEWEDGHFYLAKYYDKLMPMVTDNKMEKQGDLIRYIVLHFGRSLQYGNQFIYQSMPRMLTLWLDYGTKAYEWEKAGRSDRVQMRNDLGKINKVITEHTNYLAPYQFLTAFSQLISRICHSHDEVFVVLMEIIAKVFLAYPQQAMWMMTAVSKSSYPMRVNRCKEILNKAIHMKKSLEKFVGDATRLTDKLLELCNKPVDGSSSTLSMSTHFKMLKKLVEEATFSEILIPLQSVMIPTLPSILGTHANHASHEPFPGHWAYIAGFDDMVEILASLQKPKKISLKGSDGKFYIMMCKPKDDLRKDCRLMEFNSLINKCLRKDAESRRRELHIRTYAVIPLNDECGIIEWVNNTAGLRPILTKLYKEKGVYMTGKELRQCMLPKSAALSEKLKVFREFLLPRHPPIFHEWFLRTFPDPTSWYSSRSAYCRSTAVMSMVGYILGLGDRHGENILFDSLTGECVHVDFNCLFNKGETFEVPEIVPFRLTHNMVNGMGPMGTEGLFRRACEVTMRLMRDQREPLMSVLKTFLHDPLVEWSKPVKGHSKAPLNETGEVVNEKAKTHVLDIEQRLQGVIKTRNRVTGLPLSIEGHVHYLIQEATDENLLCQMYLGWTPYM
Sequence of full-length human ATR protein (Q8WXE1 other isoform, or with tags, fused parts or gaps partner): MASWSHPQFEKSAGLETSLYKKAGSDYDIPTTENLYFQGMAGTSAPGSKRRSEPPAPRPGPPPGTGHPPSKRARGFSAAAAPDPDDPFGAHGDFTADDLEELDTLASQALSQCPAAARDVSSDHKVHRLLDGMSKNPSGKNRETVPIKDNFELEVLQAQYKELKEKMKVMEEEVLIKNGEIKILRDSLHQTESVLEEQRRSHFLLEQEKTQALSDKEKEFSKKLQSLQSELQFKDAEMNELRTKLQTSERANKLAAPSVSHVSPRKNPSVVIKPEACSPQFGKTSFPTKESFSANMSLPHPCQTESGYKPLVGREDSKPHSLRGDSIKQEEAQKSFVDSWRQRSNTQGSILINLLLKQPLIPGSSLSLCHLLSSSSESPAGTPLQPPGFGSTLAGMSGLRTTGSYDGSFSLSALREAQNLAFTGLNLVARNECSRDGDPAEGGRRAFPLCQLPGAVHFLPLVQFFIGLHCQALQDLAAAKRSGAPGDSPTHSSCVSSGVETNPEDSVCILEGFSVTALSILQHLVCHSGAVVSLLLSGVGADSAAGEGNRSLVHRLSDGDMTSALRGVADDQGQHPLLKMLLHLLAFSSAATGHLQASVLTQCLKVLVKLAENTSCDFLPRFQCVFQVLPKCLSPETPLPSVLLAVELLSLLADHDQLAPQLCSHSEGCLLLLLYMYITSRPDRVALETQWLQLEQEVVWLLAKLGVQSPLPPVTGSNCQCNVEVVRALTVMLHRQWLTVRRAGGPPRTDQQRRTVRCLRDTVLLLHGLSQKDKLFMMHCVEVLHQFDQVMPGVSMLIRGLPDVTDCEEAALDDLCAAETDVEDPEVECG

## C[C@@H]1COCCN1c1cc(C2CC2)c2ccnc(-c3cc[nH]n3)c2n1 [Example 29, 4-cyclopropyl-2-((R)-3-methylmorpholin-4-yl)-8-(1H-pyrazol-3-yl)-[1,7]-naphthyridine]
[1]
  IC50: 21.5 nM
[2]
  IC50: 9.23 nM

## C[C@@H]1COCCN1c1cc(-c2ccc(S(C)(=N)=O)cc2)c2ccnc(-c3ccn[nH]3)c2n1 (stereo partly drawn) [Example 30, 4-[2-((R)-3-methylmorpholin-4-yl)-8-(2H-pyrazol-3-yl)-[1,7]naphthyridine-4-yl]phenyl-S-methylsulphoximide]
[1]
  IC50: 22.8 nM
[2]
  IC50: 9.48 nM

## C[C@@H]1COCCN1c1cc(-c2cccc(S(C)(=N)=O)c2)c2ccnc(-c3ccn[nH]3)c2n1 (stereo partly drawn) [Example 31, 3-[2-((R)-3-methylmorpholin-4-yl)-8-(2H-pyrazol-3-yl)-[1,7]naphthyridine-4-yl]phenyl-S-methylsulphoximide]
[1]
  IC50: 86.6 nM
[2]
  IC50: 45.1 nM

## C[C@@H]1COCCN1c1cc(S(C)(=O)=O)c2ccnc(-c3ccn[nH]3)c2n1 [Example 33, 2-[(3R)-3-methylmorpholin-4-yl]-4-(methylsulfonyl)-8-(1H-pyrazol-5-yl)-1,7-naphthyridine]
[1]
  IC50: 19.8 nM
[2]
  IC50: 10.3 nM

## N#Cc1cc(N2CCOCC2)nc2c(-c3cc[nH]n3)nccc12 [Example 34, 2-(morpholin-4-yl)-8-(1H-pyrazol-3-yl)-[1,7]naphthyridine-4-carbonitrile]
[1]
  IC50: 357 nM
[2]
  IC50: 536 nM

## C[C@@H]1COCCN1c1cc(C#N)c2ccnc(-c3ccn[nH]3)c2n1 [Example 35, 2-((R)-3-methylmorpholin-4-yl)-8-(-2H-pyrazol-3-yl]-[1,7]naphthyridine-4-carbonitrile]
[1]
  IC50: 122 nM
[2]
  IC50: 75.5 nM

## NC(=O)c1cc(N2CCOCC2)nc2c(-c3cc[nH]n3)nccc12 [Example 36, 2-morpholin-4-yl-8-(1H-pyrazol-3-yl)-[1,7]naphthyridine-4-carboxamide]
[1]
  IC50: 1500 nM

## CS(=O)(=O)Cc1cc(N2CCOCC2)nc2c(-c3ccn[nH]3)nccc12 [Example 37, 4-methanesulphonylmethyl-2-morpholin-4-yl-8-(2H-pyrazol-3-yl)-[1,7]naphthyridine]
[1]
  IC50: 170 nM
[2]
  IC50: 127 nM

## OCc1cc(N2CCOCC2)nc2c(-c3ccn[nH]3)nccc12 [Example 38, [2-(morpholin-4-yl)-8-(2H-pyrazol-3-yl)-[1,7]naphthyridine-4-yl]methanol]
[1]
  IC50: 502 nM
[2]
  IC50: 405 nM

## CS(=O)(=O)C1(c2cc(N3CCOCC3)nc3c(-c4ccn[nH]4)nccc23)CC1 [Example 39, 4-(1-methanesulphonylcyclopropyl)-2-(morpholin-4-yl)-8-(2H-pyrazol-3-yl)-[1,7]naphthyridine]
[1]
  IC50: 60.1 nM
[2]
  IC50: 35.3 nM

## CC(C)Oc1cc(N2CCOCC2)nc2c(-c3ccc[nH]3)nccc12 [Example 41, 2-(morpholin-4-yl)-4-(propan-2-yloxy)-8-(1H-pyrrol-2-yl)-1,7-naphthyridine]
[1]
  IC50: 339 nM
[2]
  IC50: 230 nM

## CS(=N)(=O)CCCOc1cc(N2CCOCC2)nc2c(-c3ccn[nH]3)nccc12 (stereo not shown) [Example 42, 4-[3-(S-methylsulfonimidoyl)propoxy]-2-(morpholin-4-yl)-8-(1H-pyrazol-5-yl)-1,7-naphthyridine]
[1]
  IC50: 484 nM
[2]
  IC50: 533 nM

## CCOc1cc(N2CCOCC2)nc2c(-c3cc[nH]n3)nccc12 [Example 43, 4-ethoxy-2-(morpholin-4-yl)-8-(1H-pyrazol-3-yl)-[1,7]naphthyridine]
[1]
  IC50: 493 nM
[2]
  IC50: 258 nM

## COc1cc(N2CCOCC2)nc2c(-c3cc[nH]n3)nccc12 [Example 44, 4-methoxy-2-(morpholin-4-yl)-8-(1H-pyrazol-3-yl)-[1,7]naphthyridine]
[1]
  IC50: 543 nM
[2]
  IC50: 327 nM

## CC(C)(O)COc1cc(N2CCOCC2)nc2c(-c3ccn[nH]3)nccc12 [Example 45, 2-methyl-1-{[2-(morpholin-4-yl)-8-(1H-pyrazol-5-yl)-1,7-naphthyridin-4-yl]oxy}propan-2-ol]
[1]
  IC50: 293 nM

## c1cc(-c2nccc3c(OCC4CCCO4)cc(N4CCOCC4)nc23)[nH]n1 (stereo not shown) [Example 46, 2-(morpholin-4-yl)-8-(1H-pyrazol-5-yl)-4-(tetrahydrofuran-2-ylmethoxy)-1,7-naphthyridine]
[1]
  IC50: 262 nM

## O=C1OCCC1Oc1cc(N2CCOCC2)nc2c(-c3ccn[nH]3)nccc12 (stereo not shown) [Example 47, 3-{[2-(morpholin-4-yl)-8-(1H-pyrazol-5-yl)-1,7-naphthyridin-4-yl]oxy}dihydrofuran-2(3H)-one]
[1]
  IC50: 1390 nM

## Cc1cc(COc2cc(N3CCOCC3)nc3c(-c4ccn[nH]4)nccc23)on1 [Example 48, 4-[(3-methyl-1,2-oxazol-5-yl)methoxy]-2-(morpholin-4-yl)-8-(1H-pyrazol-5-yl)-1,7-naphthyridine]
[1]
  IC50: 161 nM

## Cc1cc(COc2cc(N3CCOCC3)nc3c(-c4ccn[nH]4)nccc23)no1 [Example 49, 4-[(5-methyl-1,2-oxazol-3-yl)methoxy]-2-(morpholin-4-yl)-8-(1H-pyrazol-5-yl)-1,7-naphthyridine]
[1]
  IC50: 200 nM

## c1ccc(COc2cc(N3CCOCC3)nc3c(-c4cc[nH]n4)nccc23)cc1 [Example 50, 4-benzyloxy-2-(morpholin-4-yl)-8-(1H-pyrazol-3-yl)-[1,7]naphthyridine]
[1]
  IC50: 410 nM
[2]
  IC50: 514 nM

## CC(C)Oc1cc(N2CCOC[C@H]2C)nc2c(-c3cc[nH]n3)nccc12 [Example 51, 4-isopropoxy-2-((R)-3-methylmorpholin-4-yl)-8-(1H-pyrazol-3-yl)-[1,7]naphthyridine]
[1]
  IC50: 38 nM
[2]
  IC50: 23.3 nM

## C[C@@H]1COCCN1c1cc(OCCCCNC(=O)OC(C)(C)C)c2ccnc(-c3ccn[nH]3)c2n1 [Example 52, Tert-butyl [4-({2-[(3R)-3-methylmorpholin-4-yl]-8-(1H-pyrazol-5-yl)-1,7-naphthyridin-4-yl}oxy)butyl]carbamate]
[1]
  IC50: 101 nM
[2]
  IC50: 78.9 nM

## COc1cc(N2CCOC[C@H]2C)nc2c(-c3cc[nH]n3)nccc12 [Example 53, 4-methoxy-2-((R)-3-methylmorpholin-4-yl)-8-(1H-pyrazol-3-yl)-[1,7]naphthyridine]
[1]
  IC50: 192 nM
[2]
  IC50: 63.5 nM

## C[C@@H]1COCCN1c1cc(OCCCNC(=O)OC(C)(C)C)c2ccnc(-c3ccn[nH]3)c2n1 [Example 54, Tert-butyl [3-({2-[(3R)-3-methylmorpholin-4-yl]-8-(1H-pyrazol-5-yl)-1,7-naphthyridin-4-yl}oxy)propyl]carbamate]
[1]
  IC50: 288 nM
[2]
  IC50: 129 nM

## C[C@@H]1COCCN1c1cc(OCCN)c2ccnc(-c3ccn[nH]3)c2n1 [Example 55, 2-({2-[(3R)-3-methylmorpholin-4-yl]-8-(1H-pyrazol-5-yl)-1,7-naphthyridin-4-yl}oxy)ethanamine]
[1]
  IC50: 162 nM

## C[C@@H]1COCCN1c1cc(OCCNC(=O)OC(C)(C)C)c2ccnc(-c3ccn[nH]3)c2n1 [Example 56, Tert-butyl [2-({2-[(3R)-3-methylmorpholin-4-yl]-8-(1H-pyrazol-5-yl)-1,7-naphthyridin-4-yl}oxy)ethyl]carbamate]
[1]
  IC50: 751 nM
[2]
  IC50: 324 nM

## C[C@@H]1COCCN1c1cc(OCCCCN)c2ccnc(-c3ccn[nH]3)c2n1 [Example 57, 4-({2-[(3R)-3-methylmorpholin-4-yl]-8-(1H-pyrazol-5-yl)-1,7-naphthyridin-4-yl}oxy)butan-1-amine]
[1]
  IC50: 230 nM

## CC(C)Oc1cc(N2[C@H](C)COC[C@@H]2C)nc2c(-c3ccn[nH]3)nccc12 [Example 58, 2-[(3R,5S)-3,5-dimethylmorpholin-4-yl]-4-isopropoxy-8-(1H-pyrazol-5-yl)-1,7-naphthyridine]
[1]
  IC50: 413 nM
[2]
  IC50: 615 nM

## CC(C)Oc1cc(N2[C@H](C)COC[C@H]2C)nc2c(-c3ccn[nH]3)nccc12 [Example 59, 2-[(3R,5R)-3,5-dimethylmorpholin-4-yl]-4-isopropoxy-8-(1H-pyrazol-5-yl)-1,7-naphthyridine]
[1]
  IC50: 730 nM
[2]
  IC50: 1250 nM

## c1cc2c(C3CCOCC3)cc(N3CCOCC3)nc2c(-c2cc[nH]n2)n1 [Example 60, 2-(morpholin-4-yl)-8-(1H-pyrazol-5-yl)-4-(tetrahydro-2H-pyran-4-yl)-1,7-naphthyridine]
[1]
  IC50: 24.1 nM
[2]
  IC50: 15.7 nM

## c1cc2ccc(N3CCOCC3)nc2c(-c2cc[nH]n2)n1 [Example 61, 2-(morpholin-4-yl)-8-(1H-pyrazol-3-yl)-[1,7]naphthyridine hydrochloride]
[1]
  IC50: 709 nM
[2]
  IC50: 503 nM

## Clc1cc(N2CCOCC2)nc2c(-c3cc[nH]n3)nccc12 [Example 62, 4-chloro-2-morpholin-4-yl-8-(1H-pyrazol-3-yl)-[1,7]naphthyridine]
[1]
  IC50: 997 nM
[2]
  IC50: 707 nM

## CSc1cc(N2CCOC[C@H]2C)nc2c(-c3ccn[nH]3)nccc12 [Example 63, 2-[(3R)-3-methylmorpholin-4-yl]-4-(methylsulfanyl)-8-(1H-pyrazol-5-yl)-1,7-naphthyridine]
[1]
  IC50: 80.7 nM
[2]
  IC50: 30.7 nM
